Laboratory results published in PubChem BioAssay AID1963983 (Molecular Pharmacology Branch, DTP, NCI, 2024).

Test system: 186277-243-T-J2-PDC multi-cell spheroid viability
Assay: Anticancer human tumor 186277-243-T-J2-PDC patient-derived colon adenocarcinoma cell line growth inhibition [PI3K]
Conditions: for viability, T/C: stronger effect = lower value
Text: Combinatorial screen of targeted agents with the PI3K inhibitors inavolisib, alpelisib, duvelisib, and copanlisib in multi-cell type tumor spheroids
A high-throughput screen of multi-cell type tumor spheroids was designed to identify active combinations of targeted small molecules and PI3K pathway inhibitors. Complex spheroids include a stromal component modeled by human endothelial cells (HUVEC) and fibroblasts modeled by human mesenchymal stem cells (MSCs). The concentration ranges selected for each drug and investigational agent were based upon clinically achievable concentrations if the clinical Cmax of the agent was known.
Compounds. The drugs and investigational agents: inavolisib (NSC800729), alpelisib (NSC765974), duvelisib (NSC772469), copanlisib (NSC816437), ipatasertib (NSC767898), afuresertib (NSC778305), talazoparib (NSC767125), sapanisertib (NSC764658), selumetinib (NSC741078), tovorafenib (DAY101, NSC766906), vemurafenib (NSC761431), ravoxertinib (NSC781343), sotorasib (NSC818433), MRTX1133 (NSC 836407), abemaciclib (NSC 768073), palbociclib (NSC758247), venetoclax (NSC 766270), SY5609 (NSC837396), enzalutamide (NSC755605), and darolutamide (NSC825331), were obtained from the National Cancer Institute (NCI) Developmental Therapeutics Program Chemical Repository. The FDA-approved anticancer drug set is available from the NCI Developmental Therapeutics Program. […] The stock solutions were prepared in dimethyl sulfoxide (DMSO, Sigma-Aldrich, St. Louis, MO, cat. D2650) at 800-fold the tested concentration and stored at -70 degrees C prior to their use. All drugs and investigational agents were tested over a range starting from a high concentration at or near the clinical Cmax and decreasing in half-log increments. If the clinical Cmax for an agent had not been determined, the highest concentration tested was 10 microM.
Cell Culture. All cells were maintained in an incubator at 37 degrees C and 5% CO2 with 95% humidity. The PDC lines were cultured according to standard operating procedures established by the NCI PDMR (https://pdmr.cancer.gov/sops/default.htm). All PDCs were thawed and cultured in Matrigel-coated flasks prepared with a working solution of 1X Ham's F-12 nutrient mix, without supplementation (Invitrogen, Waltham, MA, cat. 11765054), 100 U/mL penicillin-streptomycin (Invitrogen, cat. 15140122), and 2.5% Matrigel (Corning Inc., Corning, NY, cat. 354248) for the first three passages. The 354836-022-R-J1-PDC, 475296-252-R-J1-PDC, and 997726-040-R-J2-PDC lines were cultured in 6A media, which includes advanced DMEM/F-12 (Thermo Fisher Scientific, cat. 12634028), 10 mM HEPES (Thermo Fisher Scientific, cat. 15630080), 1X GlutaMAX supplement (Thermo Fisher Scientific, cat. 35050061), 0.1 mg/mL primocin (InvivoGen, San Diego, CA, cat. ant-pm-2), 10% defined fetal bovine serum, heat inactivated (HyClone Laboratories Inc., Logan, UT, cat. SH30070.03HI), 50% L-WRN conditioned media (ATCC, cat. CRL-3276), 1.25 mM N-Acetyl-L-cysteine (Sigma-Aldrich, cat. A9165), 10 mM nicotinamide (Sigma-Aldrich, cat. N0636), 1X B-27 supplement (Thermo Fisher Scientific, cat. 17504044), 1X N-2 supplement (Thermo Fisher Scientific, cat. 17502048), and 10 microM Y-27632 dihydrochloride (Tocris Bioscience, Bristol, United Kingdom, cat. 1254). The 624824-186-R-J2-PDC line was cultured in 6C/Colon 1B media, which includes all 6A media components plus 50 ng/mL human EGF recombinant protein (Thermo Fisher Scientific, cat. PHG0311). […]

[1] = curve of first compound, second compound 0.00316 µM
[2] = curve of first compound, second compound 0.01 µM
[3] = curve of first compound, second compound 0.0316 µM
[4] = curve of first compound, second compound 0.1 µM
[5] = curve of first compound, second compound 0.316 µM
[6] = curve of first compound, second compound 1 µM
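Note: spheroids exposed to compounds for seven days before viability reading.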
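Throughout, for viability, T/C: 100% = DMSO vehicle control viability.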

C#Cc1c(F)ccc2cc(O)cc(-c3ncc4c(N5CC6CCC(C5)N6)nc(OCC56CCCN5CC(F)C6)nc4c3F)c12 (configuration not stated)
viability, T/C (compound 0.0316 µM): 90.4% [middle of 4 runs]
viability, T/C (compound 0.1 µM): 40.8% [middle of 4 runs]
viability, T/C (compound 0.316 µM): 25.4% [middle of 4 runs]
viability, T/C (compound 1 µM): 15.6% [middle of 4 runs]
viability, T/C (compound 3.16 µM): 14.8% [middle of 4 runs]
viability, T/C (compound 10 µM): 11.7% [middle of 4 runs]
IC50 (curve of compound): 80.8 nM [middle of 4 runs]

Cc1nc(NC(=O)N2CCCC2C(N)=O)sc1-c1ccnc(C(C)(C)C(F)(F)F)c1 (configuration not stated)
viability, T/C (compound 0.1 µM): 104% [middle of 8 runs]
viability, T/C (compound 0.316 µM): 110% [middle of 8 runs]
viability, T/C (compound 1 µM): 102% [middle of 8 runs]
viability, T/C (compound 3.16 µM): 54.1% [middle of 8 runs]
viability, T/C (compound 10 µM): 16.6% [middle of 8 runs]
IC50 (compound alone, run of 05/08/2023): 3.62 µM [middle of 8 runs]

CNC(=O)c1ccc(N2C(=S)N(c3ccc(C#N)c(C(F)(F)F)c3)C(=O)C2(C)C)cc1F + CC(Nc1ccc2c(c1)OCCn1cc(N3C(=O)OCC3C(F)F)nc1-2)C(N)=O
IC50 [1]: > 10000 nM
IC50 [2]: > 10000 nM
IC50 [3]: > 10000 nM
IC50 [4]: > 10000 nM
IC50 [5]: > 10000 nM
IC50 [6]: 356 nM
viability, T/C (second compound 0.00316 µM, first compound 0.0316 µM): 109%
viability, T/C (second compound 0.00316 µM, first compound 0.1 µM): 95.8%
viability, T/C (second compound 0.00316 µM, first compound 0.316 µM): 90.8%
viability, T/C (second compound 0.00316 µM, first compound 1 µM): 98%
viability, T/C (second compound 0.00316 µM, first compound 3.16 µM): 109%
viability, T/C (second compound 0.00316 µM, first compound 10 µM): 92.2%
viability, T/C (second compound 0.01 µM, first compound 0.0316 µM): 98%
viability, T/C (second compound 0.01 µM, first compound 0.1 µM): 83.8%
viability, T/C (second compound 0.01 µM, first compound 0.316 µM): 99.3%
viability, T/C (second compound 0.01 µM, first compound 1 µM): 89.4%
viability, T/C (second compound 0.01 µM, first compound 3.16 µM): 93.7%
viability, T/C (second compound 0.01 µM, first compound 10 µM): 106%
viability, T/C (second compound 0.0316 µM, first compound 0.0316 µM): 110%
viability, T/C (second compound 0.0316 µM, first compound 0.1 µM): 111%
viability, T/C (second compound 0.0316 µM, first compound 0.316 µM): 94.1%
viability, T/C (second compound 0.0316 µM, first compound 1 µM): 113%
viability, T/C (second compound 0.0316 µM, first compound 3.16 µM): 113%
viability, T/C (second compound 0.0316 µM, first compound 10 µM): 99.2%
viability, T/C (second compound 0.1 µM, first compound 0.0316 µM): 105%
viability, T/C (second compound 0.1 µM, first compound 0.1 µM): 95.5%
viability, T/C (second compound 0.1 µM, first compound 0.316 µM): 100%
viability, T/C (second compound 0.1 µM, first compound 1 µM): 112%
viability, T/C (second compound 0.1 µM, first compound 3.16 µM): 90.2%
viability, T/C (second compound 0.1 µM, first compound 10 µM): 86.1%
viability, T/C (second compound 0.316 µM, first compound 0.0316 µM): 86.6%
viability, T/C (second compound 0.316 µM, first compound 0.1 µM): 80%
viability, T/C (second compound 0.316 µM, first compound 0.316 µM): 68.5%
viability, T/C (second compound 0.316 µM, first compound 1 µM): 79.4%
viability, T/C (second compound 0.316 µM, first compound 3.16 µM): 73.7%
viability, T/C (second compound 0.316 µM, first compound 10 µM): 63.4%
viability, T/C (second compound 1 µM, first compound 0.0316 µM): 58%
viability, T/C (second compound 1 µM, first compound 0.1 µM): 50.4%
viability, T/C (second compound 1 µM, first compound 0.316 µM): 45.1%
viability, T/C (second compound 1 µM, first compound 1 µM): 51.6%
viability, T/C (second compound 1 µM, first compound 3.16 µM): 49.6%
viability, T/C (second compound 1 µM, first compound 10 µM): 38.5%

Cn1cnc2c(F)c(Nc3ccc(Br)cc3Cl)c(C(=O)NOCCO)cc21 + CC(Nc1ccc2c(c1)OCCn1cc(N3C(=O)OCC3C(F)F)nc1-2)C(N)=O
IC50 [1]: 115 nM
IC50 [2]: 77.8 nM
IC50 [3]: 39.4 nM
IC50 [4]: 11.9 nM
IC50 [5]: < 9.49 nM
IC50 [6]: < 9.49 nM
viability, T/C (second compound 0.00316 µM, first compound 0.00949 µM): 97.2%
viability, T/C (second compound 0.00316 µM, first compound 0.03 µM): 83%
viability, T/C (second compound 0.00316 µM, first compound 0.0949 µM): 47.7%
viability, T/C (second compound 0.00316 µM, first compound 0.3 µM): 36.6%
viability, T/C (second compound 0.00316 µM, first compound 0.949 µM): 14.2%
viability, T/C (second compound 0.00316 µM, first compound 3 µM): 8.95%
viability, T/C (second compound 0.01 µM, first compound 0.00949 µM): 101%
viability, T/C (second compound 0.01 µM, first compound 0.03 µM): 79.8%
viability, T/C (second compound 0.01 µM, first compound 0.0949 µM): 40.4%
viability, T/C (second compound 0.01 µM, first compound 0.3 µM): 26.5%
viability, T/C (second compound 0.01 µM, first compound 0.949 µM): 15.9%
viability, T/C (second compound 0.01 µM, first compound 3 µM): 9.46%
viability, T/C (second compound 0.0316 µM, first compound 0.00949 µM): 94%
viability, T/C (second compound 0.0316 µM, first compound 0.03 µM): 54.5%
viability, T/C (second compound 0.0316 µM, first compound 0.0949 µM): 32.8%
viability, T/C (second compound 0.0316 µM, first compound 0.3 µM): 19.2%
viability, T/C (second compound 0.0316 µM, first compound 0.949 µM): 10.6%
viability, T/C (second compound 0.0316 µM, first compound 3 µM): 6.13%
viability, T/C (second compound 0.1 µM, first compound 0.00949 µM): 53.9%
viability, T/C (second compound 0.1 µM, first compound 0.03 µM): 33.8%
viability, T/C (second compound 0.1 µM, first compound 0.0949 µM): 22.4%
viability, T/C (second compound 0.1 µM, first compound 0.3 µM): 8.1%
viability, T/C (second compound 0.1 µM, first compound 0.949 µM): 7.55%
viability, T/C (second compound 0.1 µM, first compound 3 µM): 3.21%
viability, T/C (second compound 0.316 µM, first compound 0.00949 µM): 30.7%
viability, T/C (second compound 0.316 µM, first compound 0.03 µM): 16.4%
viability, T/C (second compound 0.316 µM, first compound 0.0949 µM): 9.95%
viability, T/C (second compound 0.316 µM, first compound 0.3 µM): 4.19%
viability, T/C (second compound 0.316 µM, first compound 0.949 µM): 4.43%
viability, T/C (second compound 0.316 µM, first compound 3 µM): 3.42%
viability, T/C (second compound 1 µM, first compound 0.00949 µM): 20.1%
viability, T/C (second compound 1 µM, first compound 0.03 µM): 10.1%
viability, T/C (second compound 1 µM, first compound 0.0949 µM): 4.65%
viability, T/C (second compound 1 µM, first compound 0.3 µM): 3.78%
viability, T/C (second compound 1 µM, first compound 0.949 µM): 3.32%
viability, T/C (second compound 1 µM, first compound 3 µM): 0.47%
